We go through 16 compounds from patent publication US4755508A, “Benzodiazepine analogs and use as antogonists of gastrin and cholecystokinin” (Merck & Co., Inc., priority 1987, dated 1988).

Molecules are shown by their SMILES. “Also recorded” adds a separate entry of the source. Where two headings read alike, the source gives them in different places. Where a SMILES comes first, the peptide text is derived from it. [ ]: non-standard residue; d: D form. The star is where a group is joined. sY = N[C@@H](Cc1ccc(OS(=O)(=O)O)cc1)C(=O)O; Cbz = O=C(OCc1ccccc1)*; Boc = CC(C)(C)OC(=O)*

Assay [1] deals with T1, CCK receptor (rat pancreas membranes) (Rattus norvegicus, UniProt P30551).
T1 construct: The whole pancreas was dissected free of fat tissue and was homogenized; from tissue; host or cells: pancreas of male Sprague-Dawley rats (membranes)
T1 sequence (P30551 1-444): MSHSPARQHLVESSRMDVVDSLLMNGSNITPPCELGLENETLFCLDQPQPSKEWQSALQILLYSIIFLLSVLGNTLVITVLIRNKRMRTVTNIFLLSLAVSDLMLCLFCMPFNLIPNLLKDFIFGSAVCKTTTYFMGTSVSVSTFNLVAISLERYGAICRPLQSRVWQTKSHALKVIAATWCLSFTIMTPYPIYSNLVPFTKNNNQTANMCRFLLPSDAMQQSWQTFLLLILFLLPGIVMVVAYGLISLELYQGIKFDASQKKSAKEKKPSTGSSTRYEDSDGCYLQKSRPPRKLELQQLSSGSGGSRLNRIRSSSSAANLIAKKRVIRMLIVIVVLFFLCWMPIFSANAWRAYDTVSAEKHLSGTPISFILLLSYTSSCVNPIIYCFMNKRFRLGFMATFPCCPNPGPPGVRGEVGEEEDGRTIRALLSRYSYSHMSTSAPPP
In words: 125I-CCK receptor binding (pancreas). The note with it: for effect on the 125I-CCK receptor binding assay: added as protease inhibitor. As for the experimental part:
CCK-33 was radiolabeled with ^125 I-Bolton Hunter reagent (2000 Ci/mmole) as described by Sankara et al. (J. Biol. Chem. 254: 9349-9351, 1979). Receptor binding was performed according to Innis and Snyder (Proc. Natl. Acad. Sci. 77: 6917-6921, 1980) with the minor modification of adding the additional protease inhibitors, phenylmethane sulfonyl fluoride and o-phenanthroline. The latter two compounds have no effect on the ^125 I-CCK receptor binding assay.
Male Sprague-Dawley rats (200-350 g) were sacrificed by decapitation. The whole pancreas was dissected free of fat tissue and was homogenized in 20 volumes of ice-cold 50 mM, Tris HCl (pH 7.7 at 25° C.) with a Brinkmann Polytron PT 10. The homogenates were centrifuged at 48,000 g for 10 min. Pellets were resuspended in Tris Buffer, centrifuged as above and resuspended in 200 volumes of binding assay buffer (50 mM Tris HCl, pH 7.7 at 25° C., 5 mM dithiothrietol, 0.1 mM bacitracin, 1.2 mM phenylmethane sulfonyl fluoride and 0.5 mM o-phenanthroline). […] All assays were run in duplicate or triplicate. The reaction mixtures were incubated at 37° C. for 30 minutes and centrifuged in a Beckman Microfuge (4 minutes) immediately after adding 1 ml of ice-cold incubation buffer. The supernatant was aspirated and discarded, pellets were counted with a Beckman gamma 5000. For Scatchard analysis (Ann. N.Y. Acad. Sci. 51: 660, 1949), ^125 I-CCK-33 was progressively diluted with increasing concentrations of CCK-33

In a further assay the test system is CCK receptor. The conditions noted are these: structure-function studies; cited from earlier work.
For another assay, the system named is gastrin. The conditions noted are these: in vitro; cited from earlier work.
The target in assay [2] is T2, CCK receptor (guinea pig cerebral cortex) (Cavia porcellus, UniProt H0VZC5).
T2 construct: Cerebral cortex was dissected and used as a receptor source; from tissue; host or cells: cerebral cortex of male Hartley guinea pigs (membranes)
Briefly: 125I-CCK receptor binding (brain). The conditions noted are these: 125I-CCK-33, guinea pig cerebral cortex, 25° C., 2 hours. As for the experimental part: CCK-33 was radiolabeled and the binding was performed according to the description for the pancreas method with modifications according to Saito et al., J. Neurochem. 37, 483-490, 1981.
Male Hartley guinea pigs (300-500 g) were sacrificed by decapitation and the brains were removed and placed in ice-cold 50 mM, Tris HCl plus 7.58 g/l Trizma-7.4 (pH 7.4 at 25° C.). Cerebral cortex was dissected and used as a receptor source. Each gram of fresh guinea pig brain tissue was homogenized in 10 ml of Tris Trizma buffer with a Brinkman polytron PT-10. The homogenates were centrifuged at 42,000 g for 15 min. […] All assays were run in duplicate or triplicate. The reaction mixtures were incubated at 25° C. for 2 hours and centrifuged in a Beckman Microfuge (4 minutes) immediately after adding 1 ml of ice-cold incubation buffer. The supernatant was aspirated and discarded, pellets were counted with a Beckman gamma 5000.

Another assay concerns the target T3, gastrin receptor (Cavia porcellus, UniProt H0VZC5).
T3 construct: Gastric mucosa from guinea pigs (300-500 g body weight, male Hartley) were washed thoroughly and minced; from tissue; host or cells: gastric mucosal glands of male Hartley guinea pigs
In words: Gastrin receptor binding in guinea pig gastric glands. The note with it: guinea pig gastric mucosal glands. The method, then:
Gastrin antagonist activity of compounds of Formula I is determined using the following assay: […]
GASTRIN RECEPTOR BINDING IN GUINEA PIG GASTRIC GLANDS
Guinea pig gastric mucosal glands were prepared by the procedure of Berglingh and Obrink Acta Physiol. Scand. 96: 150 (1976) with a slight modification according to Praissman et al. C. J. Receptor Res. 3: (1983). Gastric mucosa from guinea pigs (300-500 g body weight, male Hartley) were washed thoroughly and minced with fine scissors in standard buffer consisting of the following: 130 mM NaCl, 12 mM NaHCO3, 3 mM NaH2 PO4, 3 mM Na2 HPO4, 3 mM K2 HPO4, 2 mM MgSO4, 1 mM CaCl2, 5 mM glucose and 4 mM L-glutamine, 25 mM HEPES at pH 7.4. The minced tissues were washed and then incubated in a 37° C. shaker bath for 40 minutes with the buffer containing 0.1% collagenase and 0.1% BSA and bubbled with 95% O2 and 5% CO2. The tissues were passed twice through a 5 ml glass syringe to liberate the gastric glands, and then filtered through 200 mesh nylon. The filtered glands were centrifuged at 270 g for 5 minutes and washed twice by resuspension and centrifugation.

Setting [3] is: 125I-CCK-33, rat pancreas, 37° C., 30 minutes, read-out: IC50 (uM) 125I-CCK Pancreas.

T2 sequence (H0VZC5 entry or part of it): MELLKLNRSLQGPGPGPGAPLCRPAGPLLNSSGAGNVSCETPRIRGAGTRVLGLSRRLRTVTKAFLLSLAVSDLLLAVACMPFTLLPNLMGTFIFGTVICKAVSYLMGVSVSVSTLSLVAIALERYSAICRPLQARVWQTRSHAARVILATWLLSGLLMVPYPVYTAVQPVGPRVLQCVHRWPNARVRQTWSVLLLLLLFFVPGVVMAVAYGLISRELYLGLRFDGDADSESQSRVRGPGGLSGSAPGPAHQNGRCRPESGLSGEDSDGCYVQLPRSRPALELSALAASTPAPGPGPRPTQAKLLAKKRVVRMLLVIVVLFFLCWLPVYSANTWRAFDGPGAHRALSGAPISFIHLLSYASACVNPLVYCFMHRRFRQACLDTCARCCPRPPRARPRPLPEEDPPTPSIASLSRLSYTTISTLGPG
T3 sequence (H0VZC5 entry or part of it): as above

Consider `O=S(=O)(F)Cc1ccccc1` [phenylmethane sulfonyl fluoride, reference compound], for which the “effect on the 125I-CCK receptor binding assay” value in assay [1] was “no effect”.
Consider `CSCC[C@H](NC(=O)OC(C)(C)C)C(=O)N[C@@H](CC(=O)O)C(=O)N[C@@H](Cc1ccccc1)C(N)=O` [Boc-Met-Asp-Phe-NH2] (Boc-Met-Asp-Phe-NH2), for which the CCK antagonist activity result in the assay on CCK receptor is given as “can function as CCK antagonists”.
Take `CCCC(=O)Nc1nc2c(ncn2[C@@H]2O[C@@H]3COP(=O)(O)O[C@H]3[C@H]2OC(=O)CCC)c(=O)[nH]1` [dibutyryl cyclic GMP]: the CCK antagonist activity entry in the assay with CCK receptor is listed as “the most potent”.
Regarding `c1cnc2c(c1)ccc1cccnc12` [o-phenanthroline, reference compound], in assay [1], the “effect on the 125I-CCK receptor binding assay” value was “no effect”.
Consider `CCCN(CCC)C(=O)C(CCC(=O)O)NC(=O)c1ccccc1` (centres unmarked) [proglumide], for which, in the assay on gastrin, the gastrin antagonist activity result was “very weak in vitro antagonists”.
As usually defined, the IC50 is the concentration needed to halve the response being measured. `NC1=Nc2ccccc2C(c2ccccc2F)=N[C@@H]1Cc1c[nH]c2ccccc12` [Example 3, 2-Amino-3(R)-(3'-indolyl)methyl-5-(2'-fluorophenyl)-2H-1,4-benzodiazepine] displayed an IC50 in assay [1] of 1.7 µM.
As for `CNC1=Nc2ccccc2C(c2ccccc2F)=N[C@@H]1Cc1c[nH]c2ccccc12` [Example 4, 2-Methylamino-3(R)-(3'-indolyl)methyl-5-(2'-fluorophenyl)-2H-1,4-benzodiazepine], the figures for the IC50 (in assay [2]; on gastrin receptor; in assay [1] (setting [3])) were more than 100 µM, 67 µM and 4.5 µM, respectively.
For the compound `Fc1ccccc1C1=N[C@H](Cc2c[nH]c3ccccc23)C(Nc2ccccc2)=Nc2ccccc21` [Example 1, 2-Phenylamino-3(R)-(3'-indolyl)methyl-5-(2'-fluorophenyl)-2H-1,4-benzodiazepine], the concentration for half-maximal inhibition (IC50) in assay [2] amounted to 100 µM; in assay [1] (setting [3]) it was 34 µM.
Turning to `CCOC(=O)CNC1=Nc2ccccc2C(c2ccccc2F)=N[C@@H]1Cc1c[nH]c2ccccc12` [Example 5, 2-Ethoxycarbonylmethylamino-3(R)-(3'-indolyl)methyl-5-(2'-fluorophenyl)-2H-1,4-benzodiazepine], the IC50 in assay [2] came out at 49 µM; in assay [1] (setting [3]), 23 µM.
Turning to `CSCC[C@H](NC(=O)[C@H](Cc1ccc(OS(=O)(=O)O)cc1)NC(=O)OCc1ccccc1)C(=O)NCC(=O)N[C@@H](Cc1c[nH]c2ccccc12)C(=O)N[C@@H](CCSC)C(=O)N[C@@H](CC(=O)O)C(N)=O` [Cbz-Tyr(SO3 H)-Met-Gly-Trp-Met-Asp-NH2] (Cbz-[sY]MGWMD-NH2), in the assay on CCK receptor, the CCK antagonist activity entry is recorded as “can function as CCK antagonists; also recorded: partial agonist”.
As for `N#CNC1=Nc2ccccc2C(c2ccccc2F)=N[C@@H]1Cc1c[nH]c2ccccc12` [Example 6, 2-Cyanoamino-3(R)-(3'-indolyl)methyl-5-(2'-fluorophenyl)-2H-1,4-benzodiazepine], the results for the half-inhibitory concentration (IC50) in assay [2] and in assay [1] (setting [3]) were 100 µM and 2 µM, respectively.
With `O=C(O)CNC1=Nc2ccccc2C(c2ccccc2)=NC1NC(=O)Nc1ccc(Cl)cc1` (centres unmarked) [Example 9, N-[3-(((4-Chlorophenyl)aminocarbonyl)amino)-5-phenyl-3H-1,4-benzodiazepin-2-yl]-glycine], the IC50 worked out at 0.11 µM in assay [2], 0.032 µM on gastrin receptor and 0.069 µM in assay [1] (setting [3]).
For `O=C(O)CNC1=Nc2ccccc2C(c2ccccc2F)=N[C@@H]1Cc1c[nH]c2ccccc12` [Example 8, 2-Carboxymethylamino-3(R)-(3'-indolyl)methyl-5-(2'-fluorophenyl)-2H-1,4-benzodiazepine], in that order: 31 µM, 2.7 µM and 3.6 µM.
Regarding `CSCC[C@H](N)C(=O)N[C@@H](CC(=O)O)C(=O)N[C@@H](Cc1ccccc1)C(N)=O` [Met-Asp-Phe-NH2] (H-Met-Asp-Phe-NH2), the CCK antagonist activity result with CCK receptor is “can function as CCK antagonists”.
With `CCOC(=O)CNC1=Nc2ccccc2C(c2ccccc2)=NC1NC(=O)Nc1ccc(Cl)cc1` (centres unmarked) [Example 10, N-[3-(((4-Chlorophenyl)aminocarbonyl)amino)-5-phenyl-3H-1,4-benzodiazepin-2-yl]-glycine ethyl ester], the half-maximal inhibitory concentration (IC50) in assay [1] (setting [3]) was 1.4 µM.
As for `CCCNC1=Nc2ccccc2C(c2ccccc2F)=N[C@@H]1Cc1c[nH]c2ccccc12` [Example 7, 2-Propylamino-3(R)-(3'-indolyl)methyl-5-(2-fluorophenyl)-2H-1,4-benzodiazepine], the 50% inhibitory concentration (IC50) in assay [2] is more than 100 µM; in assay [1] it was 2.7 µM.
